Measured values taken from ChEMBL document CHEMBL3745645, “Synthesis, in vitro antitumor activity, dihydrofolate reductase inhibition, DNA intercalation and structure-activity relationship studies of 1,3,5-triazine analogues” (Bioorg Med Chem Lett, 2016).
Calls of active or inactive are those of the source. The calls are words filed in the database; no cut-off is given here.

What was measured:
[1] = Cytotoxicity against human Caki1 cells at 10 uM after 48 hrs by SRB assay; format: functional; settings: CAKI-1, 48 h, read-out: GI
SN12C = assay: Cytotoxicity against human SN12C cells at 10 uM after 48 hrs by SRB assay; format: functional; settings: read-out: GI
[2] = Cytotoxicity against human UO31 cells at 10 uM after 48 hrs by SRB assay; format: functional; settings: UO-31, 48 h, read-out: GI
[3] = Cytotoxicity against human DU145 cells at 10 uM after 48 hrs by SRB assay; format: functional; settings: DU-145, 48 h, read-out: GI
MCF7 [4] = assay: Cytotoxicity against human MCF7 cells at 10 uM after 48 hrs by SRB assay; format: functional; settings: MCF7, 48 h, read-out: GI
MDA-MB-231 = assay: Cytotoxicity against human MDA-MB-231 cells at 10 uM after 48 hrs by SRB assay; format: functional; settings: MDA-MB-231, 48 h, read-out: GI
T47D = assay: Cytotoxicity against human T47D cells at 10 uM after 48 hrs by SRB assay; format: functional; settings: read-out: GI
CCRF-CEM = assay: Cytotoxicity against human CCRF-CEM cells after 48 hrs by SRB assay; format: functional; settings: for GI50 / TGI: pooled result: one value given for 6 cell lines, strains, targets or settings
[5] = Cytotoxicity against human HL-60(TB) cells after 48 hrs by SRB assay; format: functional; settings: HL-60, 48 h, read-out: LC50 (the source's name)
[6] = Cytotoxicity against human MOLT4 cells after 48 hrs by SRB assay; format: functional; settings: MOLT-4, 48 h, read-out: LC50 (the source's name)
[7] = Cytotoxicity against human RPMI8226 cells after 48 hrs by SRB assay; format: functional; settings: RPMI-8226, 48 h, read-out: LC50 (the source's name)
SR [8] = assay: Cytotoxicity against human SR cells after 48 hrs by SRB assay; format: functional
A549 [9] = assay: Cytotoxicity against human A549 cells after 48 hrs by SRB assay; format: functional; settings: A549, 48 h, pooled result: one value given for 8 cell lines, strains, targets or settings
[10] = Cytotoxicity against human SF268 cells after 48 hrs by SRB assay; format: functional; settings: SF-268, 48 h, pooled result: one value given for 6 cell lines, strains, targets or settings
[11] = Cytotoxicity against human LOXIMVI cells after 48 hrs by SRB assay; format: functional; settings: LOX IMVI, pooled result: one value given for 9 cell lines, strains, targets or settings
[12] = Cytotoxicity against human IGROV1 cells after 48 hrs by SRB assay; format: functional; settings: IGROV-1, 48 h, pooled result: one value given for 7 cell lines, strains, targets or settings
[13] = Cytotoxicity against human PC3 cells after 48 hrs by SRB assay; format: functional; settings: PC-3, 48 h; for GI50 / TGI: pooled result: one value given for 2 cell lines, strains, targets or settings
MCF7 [14] = assay: Cytotoxicity against human MCF7 cells after 48 hrs by SRB assay; format: functional; settings: MCF7, 48 h, pooled result: one value given for 6 cell lines, strains, targets or settings
Calf thymus DNA [15] = assay: Binding affinity to calf thymus DNA by UV-vis spectrometric analysis; format: nucleic-acid assay; settings: Bos taurus
Calf thymus DNA [16] = assay: Binding affinity to calf thymus DNA by fluorescence spectrophotometric analysis; format: nucleic-acid assay; settings: Bos taurus
[17] = Cytotoxicity against human MOLT4 cells at 10 uM after 48 hrs by SRB assay; format: functional; settings: MOLT-4, 48 h, read-out: GI
SR [18] = assay: Cytotoxicity against human SR cells at 10 uM after 48 hrs by SRB assay; format: functional; settings: read-out: GI
A549 [19] = assay: Cytotoxicity against human A549 cells at 10 uM after 48 hrs by SRB assay; format: functional; settings: A549, 48 h, read-out: GI
[20] = Cytotoxicity against human HOP62 cells at 10 uM after 48 hrs by SRB assay; format: functional; settings: HOP-62, 48 h, read-out: GI
[21] = Cytotoxicity against human HOP92 cells at 10 uM after 48 hrs by SRB assay; format: functional; settings: HOP-92, 48 h, read-out: GI
NCI-H226 = assay: Cytotoxicity against human NCI-H226 cells at 10 uM after 48 hrs by SRB assay; format: functional; settings: NCI-H226, 48 h, read-out: GI
NCI-H522 = assay: Cytotoxicity against human NCI-H522 cells at 10 uM after 48 hrs by SRB assay; format: functional; settings: NCI-H522, 48 h, read-out: GI
[22] = Cytotoxicity against human COLO205 cells at 10 uM after 48 hrs by SRB assay; format: functional; settings: COLO 205, 48 h, read-out: GI
KM12 = assay: Cytotoxicity against human KM12 cells at 10 uM after 48 hrs by SRB assay; format: functional; settings: KM12, 48 h, read-out: GI
[23] = Cytotoxicity against human SW620 cells at 10 uM after 48 hrs by SRB assay; format: functional; settings: SW-620, 48 h, read-out: GI
[24] = Cytotoxicity against human SF539 cells at 10 uM after 48 hrs by SRB assay; format: functional; settings: SF-539, 48 h, read-out: GI
[25] = Cytotoxicity against human SNB19 cells at 10 uM after 48 hrs by SRB assay; format: functional; settings: SNB-19, 48 h, read-out: GI
[26] = Cytotoxicity against human SNB75 cells at 10 uM after 48 hrs by SRB assay; format: functional; settings: SNB-75, 48 h, read-out: GI
U-251 = assay: Cytotoxicity against human U251 cells at 10 uM after 48 hrs by SRB assay; format: functional; settings: U-251, 48 h, read-out: GI
[27] = Cytotoxicity against human LOXIMVI cells at 10 uM after 48 hrs by SRB assay; format: functional; settings: LOX IMVI, read-out: GI
Malme-3M = assay: Cytotoxicity against human MALME-3M cells at 10 uM after 48 hrs by SRB assay; format: functional
M14 = assay: Cytotoxicity against human M14 cells at 10 uM after 48 hrs by SRB assay; format: functional
SK-MEL-28 = assay: Cytotoxicity against human SK-MEL-28 cells at 10 uM after 48 hrs by SRB assay; format: functional
SK-MEL-5 = assay: Cytotoxicity against human SK-MEL-5 cells at 10 uM after 48 hrs by SRB assay; format: functional; settings: SK-MEL-5, 48 h, read-out: GI
[28] = Cytotoxicity against human IGROV1 cells at 10 uM after 48 hrs by SRB assay; format: functional; settings: IGROV-1, 48 h, read-out: GI
[29] = Cytotoxicity against human OVCAR5 cells at 10 uM after 48 hrs by SRB assay; format: functional; settings: OVCAR-5, 48 h, read-out: GI
A498 = assay: Cytotoxicity against human A498 cells at 10 uM after 48 hrs by SRB assay; format: functional
ACHN = assay: Cytotoxicity against human ACHN cells at 10 uM after 48 hrs by SRB assay; format: functional; settings: read-out: GI

## Cc1nc2ccc(Nc3nc(NCCN4CCOCC4)nc(Nc4ccc(F)cc4)n3)cc2n1Cc1ccccc1
[1]
  inhibition of growth at 10 µM: 44.4%
SN12C
  inhibition of growth at 10 µM: 38.1%
[2]
  inhibition of growth at 10 µM: 62.7%
[3]
  inhibition of growth at 10 µM: 40.8%
MCF7 [4]
  inhibition of growth at 10 µM: 66.4%
MDA-MB-231
  inhibition of growth at 10 µM: 66.7%
T47D
  inhibition of growth at 10 µM: 47%
CCRF-CEM
  LC50: 55 µM
  GI50: 1.96 µM
  TGI: 6.82 µM
[5]
  CC50: 55 µM
[6]
  CC50: 55 µM
[7]
  CC50: 55 µM
SR [8]
  LC50 (concentration killing 50% of cells): 55 µM
A549 [9]
  GI50: 3.21 µM
  LC50: 38.5 µM
  TGI: 18.5 µM
[10]
  GI50: 2.72 µM
  LC50 (concentration killing 50% of cells): 15.3 µM
  TGI: 12 µM
[11]
  GI50: 1.91 µM
  LC50: 24.2 µM
  TGI: 4.08 µM
[12]
  GI50: 4.01 µM
  LC50 (concentration killing 50% of cells): 62.3 µM
  TGI: 27.4 µM
[13]
  LC50: 62.5 µM
  GI50: 4.41 µM
  TGI: 43.9 µM
MCF7 [14]
  GI50: 2.04 µM
  LC50 (concentration killing 50% of cells): 20.6 µM
  TGI: 8.99 µM
Calf thymus DNA [15]
  Ka: 7.19 ×10⁴ /M
Calf thymus DNA [16]
  Ka: 8.58 ×10⁴ /M
[17]
  inhibition of growth at 10 µM: 77.3%
SR [18]
  inhibition of growth at 10 µM: 99.8%
A549 [19]
  inhibition of growth at 10 µM: 53.7%
[20]
  inhibition of growth at 10 µM: 52.2%
[21]
  inhibition of growth at 10 µM: 69.7%
NCI-H226
  inhibition of growth at 10 µM: 27.9%
NCI-H522
  inhibition of growth at 10 µM: 41.3%
[22]
  inhibition of growth at 10 µM: 98.8%
KM12
  inhibition of growth at 10 µM: 56.6%
[23]
  inhibition of growth at 10 µM: 57.6%
[24]
  inhibition of growth at 10 µM: 70.2%
[25]
  inhibition of growth at 10 µM: 21.3%
[26]
  inhibition of growth at 10 µM: 49.4%
U-251
  inhibition of growth at 10 µM: 71.3%
[27]
  inhibition of growth at 10 µM: 94.3%
Malme-3M
  growth inhibition (GI): Active
M14
  growth inhibition (GI): Active
SK-MEL-28
  growth inhibition (GI): Active
SK-MEL-5
  inhibition of growth at 10 µM: 85.8%
[28]
  inhibition of growth at 10 µM: 31%
[29]
  inhibition of growth at 10 µM: 15.9%
A498
  growth inhibition (GI): Active
ACHN
  inhibition of growth at 10 µM: 47.8%

## Cc1nc2cc(Nc3nc(Nc4ccc(F)cc4)nc(-c4cccs4)n3)ccc2n1Cc1ccccc1
[1]
  inhibition of growth at 10 µM: 29.8%
SN12C
  inhibition of growth at 10 µM: 29.7%
[2]
  inhibition of growth at 10 µM: 63.5%
[3]
  inhibition of growth at 10 µM: 24.8%
MCF7 [4]
  inhibition of growth at 10 µM: 67.1%
MDA-MB-231
  inhibition of growth at 10 µM: 30.9%
T47D
  inhibition of growth at 10 µM: 76.7%
CCRF-CEM
  LC50: > 100 µM
  GI50: 2.59 µM
  TGI: 9.49 µM
[5]
  CC50: > 100 µM
[6]
  CC50: > 100 µM
[7]
  CC50: > 100 µM
SR [8]
  LC50 (concentration killing 50% of cells): > 100 µM
A549 [9]
  GI50: 7.62 µM
  LC50: 55.4 µM
  TGI: 33.1 µM
[10]
  GI50: 4.66 µM
  LC50 (concentration killing 50% of cells): 43 µM
  TGI: 14.4 µM
[11]
  GI50: 4.72 µM
  LC50: 39 µM
  TGI: 19.7 µM
[12]
  GI50: 8.83 µM
  LC50 (concentration killing 50% of cells): 75.7 µM
  TGI: 27.3 µM
[13]
  LC50: > 100 µM
  GI50: 5.2 µM
  TGI: 52.2 µM
MCF7 [14]
  GI50: 5.24 µM
  LC50 (concentration killing 50% of cells): 79.2 µM
  TGI: 21.9 µM
Calf thymus DNA [15]
  Ka: 3.19 ×10⁴ /M
Calf thymus DNA [16]
  Ka: 4.21 ×10⁴ /M
[17]
  inhibition of growth at 10 µM: 76.5%
SR [18]
  inhibition of growth at 10 µM: 82%
A549 [19]
  inhibition of growth at 10 µM: 56.9%
[20]
  inhibition of growth at 10 µM: 7.68%
[21]
  inhibition of growth at 10 µM: 78%
NCI-H226
  inhibition of growth at 10 µM: 35%
NCI-H522
  inhibition of growth at 10 µM: 46.5%
[22]
  inhibition of growth at 10 µM: 43.2%
KM12
  inhibition of growth at 10 µM: 74.8%
[23]
  inhibition of growth at 10 µM: 31.9%
[24]
  inhibition of growth at 10 µM: 40.1%
[25]
  inhibition of growth at 10 µM: 33.3%
[26]
  inhibition of growth at 10 µM: 47.8%
[27]
  inhibition of growth at 10 µM: 35.1%
Malme-3M; read-out: GI
  inhibition of growth at 10 µM: 22.4%
M14; M14, 48 h, read-out: GI
  inhibition of growth at 10 µM: 46.9%
SK-MEL-28; SK-MEL-28, 48 h, read-out: GI
  inhibition of growth at 10 µM: 25.7%
SK-MEL-5
  inhibition of growth at 10 µM: 23.5%
[28]
  inhibition of growth at 10 µM: 51.7%
[29]
  inhibition of growth at 10 µM: 7.98%
A498; A498, 48 h, read-out: GI
  inhibition of growth at 10 µM: 44%
ACHN
  inhibition of growth at 10 µM: 54.4%
